Test [1] deals with influenza A/H3N2 NA R292K. As to conditions: ref [3] of supplement (Nguyen 2012); cited from earlier work.
Test [2] relates to influenza A/H3N2 NA E119V. As to conditions: ref [3] of supplement (Nguyen 2012); cited from earlier work.
Test [3] concerns influenza A/H3N2 NA Q136K. As to conditions: ref [3] of supplement (Nguyen 2012); cited from earlier work.
Another test concerns influenza A/H3N2 NA E41G. To be noted: ref [2] of supplement (Monto 2006); cited from earlier work.
The test system of test [4] is influenza A/H3N2 NA E119D. As to conditions: ref [3] of supplement (Nguyen 2012); cited from earlier work.
In test [5] the test system is influenza A/H3N2 NA R371K. As to conditions: ref [3] of supplement (Nguyen 2012); cited from earlier work.
In test [6] the test system is influenza A/H3N2 NA N294S. As to conditions: ref [3] of supplement (Nguyen 2012); cited from earlier work.
In test [7] the test system is influenza A/H3N2 NA D151V. As to conditions: ref [4] of supplement (Sheu 2008); cited from earlier work.
Test [8] deals with influenza A/H3N2 NA R224K. To be noted: ref [3] of supplement (Nguyen 2012); cited from earlier work.
For test [9], the system named is influenza A/H3N2 NA Q226H. To be noted: ref [2] of supplement (Monto 2006); cited from earlier work.
In test [10] the test system is influenza A/H3N2 NA D151E. To be noted: ref [3] of supplement (Nguyen 2012); cited from earlier work.
Test [11] concerns influenza A/H3N2 NA E276D. To be noted: ref [3] of supplement (Nguyen 2012); cited from earlier work.
For test [12], the system named is influenza A/H3N2 NA E119I. As to conditions: ref [3] of supplement (Nguyen 2012); cited from earlier work.
Test [13] deals with influenza A/H3N2 NA D151A. As to conditions: ref [4] of supplement (Sheu 2008); cited from earlier work.
Test [14] has as its system influenza A/H3N2 NA E119V+I222L. As to conditions: ref [3] of supplement (Nguyen 2012); cited from earlier work.
The test system of test [15] is influenza A/H3N2 NA E119V+I222V. To be noted: ref [3] of supplement (Nguyen 2012); cited from earlier work.
The target in test [16] is influenza A/H3N2 NA, D93G, Y155F, D251V mutations in combination (Influenza A virus (H3N2), UniProt V9SU56, D251V/D93G/Y155F). The class given is biochemical. As to conditions: read-out: mean drug concentration required to inhibit 50% NA activity.
In test [17] the target is influenza A/H3N2 NA, D93G, D251N mutations in combination (Influenza A virus (H3N2), UniProt V9SU56, D251N/D93G). The class given is biochemical. As to conditions: read-out: mean drug concentration required to inhibit 50% NA activity.
In test [18] the target is influenza A/H3N2 NA, D93G single mutation (Influenza A virus (H3N2), UniProt V9SU56, D93G). It is filed as biochemical. As to conditions: read-out: mean drug concentration required to inhibit 50% NA activity.
Test [19] deals with influenza A/H3N2 NA I222T. As to conditions: cited from earlier work.

The structures appear in SMILES notation.

Regarding `CC(=O)N[C@H]1[C@H]([C@H](O)[C@H](O)CO)OC(C(=O)O)=C[C@@H]1N=C(N)N` [Zanamivir, zanamivir], the “Drug susceptibility by NA inhibition assays (WHO class)” value is given as “S/DS/R” in test [1]; “S (<10-fold increase as susceptible (“S”))” in [2]; “DS (10–100-fold increase as decreased susceptibility (“DS”))” in test [3]; “S (<10-fold increase as susceptible (“S”))” in the test with influenza A/H3N2 NA E41G; “DS (10–100-fold increase as decreased susceptibility (“DS”))” in test [4]; “DS (10–100-fold increase as decreased susceptibility (“DS”))” in [5]. Besides, the “Drug susceptibility by NA inhibition assays (WHO class)” value is “S (<10-fold increase as susceptible (“S”))” in test [6]; “DS (10–100-fold increase as decreased susceptibility (“DS”))” in test [7]; “DS (10–100-fold increase as decreased susceptibility (“DS”))” in test [8]; “S (<10-fold increase as susceptible (“S”))” in test [9]; “S (<10-fold increase as susceptible (“S”))” in test [10]; “R (>100-fold increase as resistant (“R”))” in test [11]. In addition, the “Drug susceptibility by NA inhibition assays (WHO class)” value in test [12] was “DS (10–100-fold increase as decreased susceptibility (“DS”))”; in test [13], “DS (10–100-fold increase as decreased susceptibility (“DS”))”; in test [14], “S (<10-fold increase as susceptible (“S”))”; in test [15], “S (<10-fold increase as susceptible (“S”))”.

In the case of `CCC(CC)[C@H](NC(C)=O)[C@@H]1[C@H](O)[C@@H](C(=O)O)C[C@H]1N=C(N)N` [Peramivir, peramivir], the “Drug susceptibility by NA inhibition assays (WHO class)” value is “DS/R” in [1]; “S (<10-fold increase as susceptible (“S”))” in test [2]; “S (<10-fold increase as susceptible (“S”))” in test [4]; “S (<10-fold increase as susceptible (“S”))” in test [6]; “S (<10-fold increase as susceptible (“S”))” in [12]; “S (<10-fold increase as susceptible (“S”))” in test [15]. Also, the “IC50 fold-change compared to wildtype” value in [1] is on record as 14-719 fold; in test [2], 1-3 fold; in test [4], 2 fold; in test [6], 1 fold; in test [12], 3 fold; in [15] it was 7 fold. In addition, the IC50 in [16] worked out at 0.2 ± 0.1 nM; in test [17] it was 0.4 nM; in test [18] it was 0.2 ± 0.1 nM.

With `CCOC(=O)C1=C[C@@H](OC(CC)CC)[C@H](NC(C)=O)[C@@H](N)C1` [Oseltamivir, oseltamivir], the “Drug susceptibility by NA inhibition assays (WHO class)” value in test [1] is “R (>100-fold increase as resistant (“R”))”; in test [2], “DS/R”; in test [3], “S (<10-fold increase as susceptible (“S”))”; with influenza A/H3N2 NA E41G, “DS (10–100-fold increase as decreased susceptibility (“DS”))”; in [4], “S (<10-fold increase as susceptible (“S”))”; in [5], “DS (10–100-fold increase as decreased susceptibility (“DS”))”. Moreover, the “Drug susceptibility by NA inhibition assays (WHO class)” value is “R (>100-fold increase as resistant (“R”))” in [6]; “S (<10-fold increase as susceptible (“S”))” in [7]; “R (>100-fold increase as resistant (“R”))” in test [8]; “DS (10–100-fold increase as decreased susceptibility (“DS”))” in test [9]; “DS (10–100-fold increase as decreased susceptibility (“DS”))” in test [10]; “DS (10–100-fold increase as decreased susceptibility (“DS”))” in [11]. Further, the “Drug susceptibility by NA inhibition assays (WHO class)” value was “R (>100-fold increase as resistant (“R”))” in test [12]; “S (<10-fold increase as susceptible (“S”))” in test [13]; “R (>100-fold increase as resistant (“R”))” in [14]; “R (>100-fold increase as resistant (“R”))” in test [15]; “DS (10–100-fold increase as decreased susceptibility (“DS”))” in test [19] (I222T, ref [5] of supplement (Pizzorno 2014)). Moreover, the “increase in IC50 compared to that of the wild-type” value in test [19] (I222T in influenza A/H3N2) was 16 fold.

The record behind these values is paper PMC4311985, “Molecular Surveillance of Antiviral Drug Resistance of Influenza A/H3N2 Virus in Singapore, 2009-2013” (PLoS ONE, 2015).
